# Data reported in patent publication US6821980B1, “Substituted 5-benzyl-2,4-diaminopyrimidines” (Basilea Pharmaceutica AG, priority 1999, dated 2004).
# Where two headings read alike, the source gives them in different places.
# Legend:
# [1] = target: purified DHFR of strain 157/4696 of Staphylococcus aureus (Staphylococcus aureus, UniProt P13955); assay: biochemical
# [2] = test system: Streptococcus pneumoniae 1/1; assay: MIC against Streptococcus pneumoniae 1/1; assay type: cell-based; conditions: Streptococcus pneumoniae 1/1, trimethoprim- and penicillin-resistant, serotype 6, clinical isolate; for MIC: read-out: MIC Sp1/1
# [3] = target: T1, purified DHFR of strain Sp1/1 of Streptococcus pneumoniae (Streptococcus pneumoniae serotype 4, UniProt Q54801); assay type: biochemical; conditions: IC50 against purified DHFR of strain Sp1/1
# T1 sequence (Q54801 1-168 I100L): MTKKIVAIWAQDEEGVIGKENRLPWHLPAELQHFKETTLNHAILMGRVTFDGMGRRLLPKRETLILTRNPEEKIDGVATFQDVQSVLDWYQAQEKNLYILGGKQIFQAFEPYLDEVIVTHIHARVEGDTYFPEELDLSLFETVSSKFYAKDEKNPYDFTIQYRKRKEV
# [4] = test system: Staphylococcus aureus 101; assay: MIC against Staphylococcus aureus 101; assay type: cell-based; conditions: Staphylococcus aureus 101, MRSA- and trimethoprim-resistant, clinical isolate; for MIC: read-out: MIC Sa101
# [5] = Table 2, IC50 against purified DHFR of strain 157/4696 (highly trimethoprim-resistant; clinical isolate), read-out: DHFR Sa1
# purified DHFR of strain 157/4696 of Staphylococcus aureus, sequence (P13955 whole entry): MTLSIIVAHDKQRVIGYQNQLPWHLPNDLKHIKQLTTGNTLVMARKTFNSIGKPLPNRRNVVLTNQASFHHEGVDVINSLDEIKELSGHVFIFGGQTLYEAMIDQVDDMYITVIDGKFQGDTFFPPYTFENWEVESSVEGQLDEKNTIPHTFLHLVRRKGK
Compound,IC50 [1],MIC ([2]; Table 2),IC50 ([3]; Table 2),MIC ([4]; Table 2),MIC ([2]; Table 1),IC50 ([3]; Table 1),MIC ([4]; Table 1),"IC50 [1, 5]",MIC Sp1/1 ([2]; Table 2),MIC Sa101 ([4]; Table 2)
"CCOc1cc(Cc2cnc(N)nc2N)cc(OS(=O)(=O)N(C)C)c1-c1ccc(NC)cc1 [Example 26-a, Dimethylsulphamic acid 4-(2,4-diamino-pyrimidin-5-ylmethyl)-6-ethoxy-4′-methylamino-biphenyl-2-yl ester]",130 nM,1 µg/mL,2.1 nM,1 µg/mL,,,,,,
"CCOc1cc(Cc2cnc(N)nc2N)cc(OS(=O)(=O)N(C)CC)c1-c1ccc(NC)cc1 [Example 26-b, N-Ethyl-N-methyl-sulphamic acid 4-(2,4-diamino-pvrimidin-5-ylmethyl)-6-ethoxy-4′-methylamino-biphenyl-2-yl ester]",170 nM,1 µg/mL,1.9 nM,1 µg/mL,,,,,,
"CCOc1cc(Cc2cnc(N)nc2N)cc(OS(=O)(=O)N(C)C2CC2)c1-c1ccc(NC)cc1 [Example 26-d, N-Cyclopropyl-N-methyl-sulphamic acid 4-(2,4-diamino-pyrimidin-5-ylmethyl)-6-ethoxy-4′-methylamino-biphenyl-2-yl ester]",140 nM,1 µg/mL,5.1 nM,1 µg/mL,,,,,,
"CCOc1cc(Cc2cnc(N)nc2N)cc(OS(=O)(=O)N2CCCC2)c1-c1ccc(NC)cc1 [Example 26-e, Pyrrolidine-1-sulphonic acid 4-(2,4-diamino-pyrimidin-5-ylmethyl)-6-ethoxy-4′-methylamino-biphenyl-2-yl ester]",130 nM,1 µg/mL,2.3 nM,1 µg/mL,,,,,,
"CCOc1cc(Cc2cnc(N)nc2N)cc(OS(=O)(=O)N(CC)CC)c1-c1ccc(NC)cc1 [Example 26-f, Diethylsulphamic acid 4-(2,4-diamino-pyrimidin-5-ylmethyl)-6-ethoxy-4′-methylamino-biphenyl-2-yl ester]",230 nM,1 µg/mL,8.8 nM,2 µg/mL,,,,,,
"CCOc1cc(Cc2cnc(N)nc2N)cc(OS(=O)(=O)N2CCOCC2)c1-c1ccc(NC)cc1 [Example 26c, Morpholine-4-sulphonic acid 4-(2,4-diamino-pyrimidin-5-ylmethyl)-6-ethoxy-4′-methylamino-biphenyl-2-yl ester]",56 nM,,,,0.5 µg/mL,3.2 nM,1 µg/mL,,,
"CCOc1cc(Cc2cnc(N)nc2N)cc(OS(=O)(=O)N(C)C)c1-c1ccc(N)c(C)c1 [Example 27-a, Dimethylsulphamic acid 4′-amino-4-(2,4-diamino-pyrimidin-5-ylmethyl)-6-ethoxy-3′-methyl-biphenyl-2-yl ester]",220 nM,1 µg/mL,22 nM,2 µg/mL,,,,,,
"CCOc1cc(Cc2cnc(N)nc2N)cc(OS(=O)(=O)N(C)CC)c1-c1ccc(N)c(C)c1 [Example 27-b, N-Ethyl-N-methyl-sulphamic acid 4′-amino-4-(2,4-diamino-vyrimidin-5-ylmethyl)-6-ethoxy-3′-methyl-biphenyl-2-yl ester]",190 nM,1 µg/mL,14 nM,2 µg/mL,,,,,,
"CCOc1cc(Cc2cnc(N)nc2N)cc(OS(=O)(=O)N(C)C2CC2)c1-c1ccc(N)c(C)c1 [Example 27-c, N-Cyclopropyl-N-methyl-sulphamic acid 4′-amino-4-(2,4-diamino-pyrimidin-5-ylmethyl)-6-ethoxy-3′-methyl-biphenyl-2-yl ester]",180 nM,1 µg/mL,2.6 nM,1 µg/mL,,,,,,
"CCOc1cc(Cc2cnc(N)nc2N)cc(OS(=O)(=O)N(C)C)c1-c1ccc(N)c(F)c1 [Example 28-a, Dimethylsullhamic acid 4′-amino-4-(2,4-diamino-pyrimidin-5-ylmethyl)-6-ethoxy-3′-fluoro-biphenyl-2-yl ester]",320 nM,1 µg/mL,5.8 nM,2 µg/mL,,,,,,
"CCOc1cc(Cc2cnc(N)nc2N)cc(OS(=O)(=O)N(C)CC)c1-c1ccc(N)c(F)c1 [Example 28-b, N-Ethyl-N-methyl-sulphamic acid 4′-amino-4-(2,4-diamino-pyrimidin-5-ylmethyl)-6-ethoxy-3′-fluoro-biphenyl-2-yl ester]",320 nM,1 µg/mL,6.8 nM,2 µg/mL,,,,,,
"CCOc1cc(Cc2cnc(N)nc2N)cc(OS(=O)(=O)N(C)C2CC2)c1-c1ccc(N)c(F)c1 [Example 28-c, N-Cyclopropyl-N-methyl-sulphamic acid 4′-amino-4-(2,4-diamino-pvrimidin-5-ylmethyl)-6-ethoxy-3′-fluoro-biphenyl-2-yl ester]",240 nM,1 µg/mL,18 nM,2 µg/mL,,,,,,
"CCOc1cc(Cc2cnc(N)nc2N)cc(OS(=O)(=O)N(C)C2CC2)c1-c1cc(N)cc(F)c1 [Example 29-a, N-Cyclopropyl-N-methyl-sulphamic acid 3′-amino-4-(2,4-diamino-pyrimidin-5-ylmethyl)-6-ethoxy-5′-fluoro-biphenyl-2-yl ester]",220 nM,2 µg/mL,6.3 nM,1 µg/mL,,,,,,
"CCOc1cc(Cc2cnc(N)nc2N)cc(OS(=O)(=O)N(C)C)c1-c1cc(N)cc(F)c1 [Example 29-b, Dimethylsulphamic acid 3′-amino-4-(2,4-diamino-pyrimidin-5-ylmethyl)-6-ethoxy-5′-fluoro-biphenyl-2-yl ester]",95 nM,2 µg/mL,14 nM,2 µg/mL,,,,,,
"CCOc1cc(Cc2cnc(N)nc2N)cc(OS(=O)(=O)N(C)CC)c1-c1cc(N)cc(F)c1 [Example 29-c, N-Ethyl-N-methyl-sulphamic acid 3′-amino-4-(2,4-diamino-pyrimidin-5-ylmethyl)-6-ethoxy-5′-fluoro-biphenyl-2-yl ester]",170 nM,2 µg/mL,5.2 nM,2 µg/mL,,,,,,
"CCOc1cc(Cc2cnc(N)nc2N)cc(OS(=O)(=O)N(C)C)c1-c1ccc(CN2CCOCC2)c(N)c1 [Example 30-a, Dimethylsulphamic acid 3′-amino-4-(2,4-diamino-pyrimidin-5-ylmethyl)-6-ethoxy-4′-morpholin-4-ylmethyl-biphenyl-2-yl ester]",88 nM,2 µg/mL,4.5 nM,2 µg/mL,,,,,,
"CCOc1cc(Cc2cnc(N)nc2N)cc(OS(=O)(=O)N(C)C2CC2)c1-c1ccc(CN2CCOCC2)c(N)c1 [Example 30-b, N-Cyclopropyl-N-methyl-sulphamic acid 3′-amino-4-(2,4-diamino-pyrimidin-5-ylmethyl)-6-ethoxy-4′-morpholin-4-ylmethyl-biphenyl-2-yl ester]",37 nM,2 µg/mL,14 nM,2 µg/mL,,,,,,
"CCOc1cc(Cc2cnc(N)nc2N)cc(OS(=O)(=O)N(C)CC)c1-c1ccc(CN2CCOCC2)c(N)c1 [Example 30-c, N-Ethyl-N-methyl-sulphamic acid 3′-amino-4-(2,4-diamino-pyrimidin-5-ylmethyl)-6-ethoxy-4′-morpholin-4-ylmethyl-biphenyl-2-yl ester]",140 nM,2 µg/mL,16 nM,2 µg/mL,,,,,,
"CCOc1cc(Cc2cnc(N)nc2N)cc(OS(=O)(=O)N(C)CC)c1-c1ccc(C)c(N)c1 [Example 31-b, N-Ethyl-N-methyl-sulphamic acid 3′-amino-4-(2,4-diamino-pyrimidin-5-ylmethyl)-6-ethoxy-4′-methyl-biphenyl-2-yl ester]",130 nM,1 µg/mL,4.4 nM,2 µg/mL,,,,,,
"CCOc1cc(Cc2cnc(N)nc2N)cc(OS(=O)(=O)N(C)C)c1-c1ccc(C)c(N)c1 [Example 31a, Dimethylsulphamic acid 3′-amino-4-(2,4-diamino-pyrimidin-5-ylmethyl)-6-ethoxy-4′-methyl-biphenyl-2-yl ester]",110 nM,,,,1 µg/mL,1.9 nM,1 µg/mL,,,
"CCCS(=O)(=O)Oc1cc(Cc2cnc(N)nc2N)cc(OCC)c1-c1ccc(CN2CCOCC2)c(N)c1 [Example 32-a, Pronane-1-sulophonic acid 3′-amino-4-(2,4-diamino-pyrimidin-5-ylmethyl)-6-ethoxy-4′-morpholinemethyl-4-ylmethyl-biphenyl-2-yl ester]",,,4.6 nM,,,,,120 nM,1 µg/mL,4 µg/mL
CCCS(=O)(=O)Oc1cc(Cc2cnc(N)nc2N)cc(OCC)c1-c1ccc(N)c(C)c1 [Example 32-b],,,4.2 nM,,,,,160 nM,1 µg/mL,4 µg/mL
CCCS(=O)(=O)Oc1cc(Cc2cnc(N)nc2N)cc(OCC)c1-c1ccc(F)c(N)c1 [Example 32-c],,,6.1 nM,,,,,130 nM,1 µg/mL,4 µg/mL
"CCCS(=O)(=O)Oc1cc(Cc2cnc(N)nc2N)cc(OCC)c1-c1ccc(OC)c(N)c1 [Example 32-d, Propane-1-sulphonic acid 3′-amino-4-(2,4-diamino-pyrimidin-5-ylmethyl)-6-ethoxy-4′-methoxy-4-ylmethyl-biphenyl-2-yl ester]",,,5.9 nM,,,,,140 nM,1 µg/mL,2 µg/mL
